Measured values as given in patent US12441739B2, “Glucagon receptor antagonist and use thereof” (LANZHOU UNIVERSITY, priority 2021, dated 2025).
pIC50: −log10 of the molar value. Where “and” joins values, the source holds several entries; their conditions need not be identical. Identical values can stand only once.

Target: T1, human glucagon receptor (hGCGR) (Homo sapiens, UniProt P47871)
T1 construct: host or cells: HEK293
Assay: HTRF second messenger cAMP response experiment (called cell viability test) in HEK293 cells with glucagon peptide segment
Format: cell-based
Conditions: for inhibitory activity of glucagon receptor (in words, from cAMP response curves): FIG. 5 / FIG. 14
Experimental: In order to determine the antagonistic activity of the compound A on the glucagon receptor in the above embodiments, a cell viability test is carried out. The specific implementation is as follows.
A known human glucagon receptor (hGCGR) antagonist drug is selected as a positive control, and the compound A in the above embodiments, a glucagon peptide segment (that is, human full-length glucagon), and human embryonic kidney cells containing target receptor molecules are mixed. The glucagon peptide segment binds to hGCGR to activate the hGCGR signaling pathway and release the second messenger cAMP. The compound A acts as an antagonist to inhibit the activity of hGCGR.
In an exemplary embodiment, a known hGCGR antagonist drug (L-168,049) is selected as a positive control. […] In addition, in view of the human glucagon receptor on the cell membrane of human embryonic kidney cells HEK293, HEK293 is used to test the drug activity of the human glucagon antagonist. In this embodiment, different concentrations of compound A of the present disclosure and the positive control are respectively mixed with glucagon peptide segments and HEK293 cells, the second messenger cAMP is detected through homogeneous time resolved fluorescence (HTRF), and a half maximal inhibitory concentration value of each compound is calculated according to the intensity value of HTRF.
(§1) In an exemplary embodiment, the activity of the compound A is tested using the HTRF technique. Specifically, after activation of the glucagon receptor by the glucagon peptide segment, the second messenger cAMP is released from the glucagon receptor cells, the second messenger cAMP may be detected by HTRF, and the half maximal inhibitory concentration (IC50) of the tested compound may be calculated according to the fluorescence intensity.
In an exemplary embodiment, 11 identical concentration gradients are set for the compounds A1 and A2 respectively. The activities of the compounds A1 and A2 are determined by the HTRF second messenger cAMP response experiment in triplicate.
Step S910. Select an antagonist drug of hGCGR as a positive control, and mix each target drug small molecule, a glucagon peptide segment, and human embryonic kidney cells containing the target receptor molecule. The glucagon peptide segment binds to hGCGR to activate the hGCGR signaling pathway and release the second messenger cAMP. The target drug molecule acts as an antagonist to inhibit the activity of hGCGR.
In an exemplary embodiment, an antagonist drug (such as L-168,049) of hGCGR is selected as a positive control. In addition, in view of the human glucagon receptor on the cell membrane of human embryonic kidney cells (such as HEK293), HEK293 may be used to test the drug activity of the human glucagon antagonist. The target drug small molecule, the glucagon peptide segment, and the HEK293 cells containing the target receptor molecule are mixed. The glucagon peptide segment is used to bind to hGCGR to activate the hGCGR signaling pathway and promote the release of the second messenger cAMP. The target drug molecule acts as an antagonist to inhibit the activity of hGCGR.
Step S920. Detect the second messenger cAMP through HTRF, and determine a half maximal inhibitory concentration value of each target drug small molecule according to an intensity value of HTRF.
as §1, with “each target drug small molecule (such as 30 target drug small molecules shown in Table 2)” for “the compound A”, “tested by” for “tested”, “drug molecule” for “tested compound”, “intensity. […]” for “intensity.”

[1] = concentration gradient LogM −5.477121, HEK293 cells, glucagon peptide segment, HTRF cAMP, triplicate columns
[2] = concentration gradient LogM −8.339849, HEK293 cells, glucagon peptide segment, HTRF cAMP, triplicate columns
[3] = concentration gradient LogM −9.294091, HEK293 cells, glucagon peptide segment, HTRF cAMP, triplicate columns
[4] = concentration gradient LogM −6.908485, HEK293 cells, glucagon peptide segment, HTRF cAMP, triplicate columns
[5] = concentration gradient LogM −7.862728, HEK293 cells, glucagon peptide segment, HTRF cAMP, triplicate columns
[6] = concentration gradient LogM −7.385606, HEK293 cells, glucagon peptide segment, HTRF cAMP, triplicate columns
[7] = concentration gradient LogM −8.81697, HEK293 cells, glucagon peptide segment, HTRF cAMP, triplicate columns
[8] = concentration gradient LogM −5.954243, HEK293 cells, glucagon peptide segment, HTRF cAMP, triplicate columns
[9] = concentration gradient LogM −5, HEK293 cells, glucagon peptide segment, HTRF cAMP, triplicate columns

T1 sequence (P47871 26-477): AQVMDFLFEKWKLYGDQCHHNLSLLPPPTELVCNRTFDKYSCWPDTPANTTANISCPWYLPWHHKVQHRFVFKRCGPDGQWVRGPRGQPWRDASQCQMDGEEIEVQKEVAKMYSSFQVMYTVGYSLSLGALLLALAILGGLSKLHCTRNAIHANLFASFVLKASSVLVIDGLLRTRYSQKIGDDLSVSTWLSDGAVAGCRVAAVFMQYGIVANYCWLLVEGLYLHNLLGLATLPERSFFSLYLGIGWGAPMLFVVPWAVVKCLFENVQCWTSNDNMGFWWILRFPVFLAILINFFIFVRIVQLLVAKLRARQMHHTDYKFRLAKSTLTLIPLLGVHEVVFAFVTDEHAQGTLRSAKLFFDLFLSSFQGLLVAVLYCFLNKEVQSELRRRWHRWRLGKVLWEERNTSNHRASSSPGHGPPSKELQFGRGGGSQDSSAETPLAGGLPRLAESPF

Compound: NS(=O)(=O)c1ccc(NC(=S)NNC(=S)NC2CCCCC2)cc1 [Compound C1]
- pIC50: < 5.00
- Inhibition percentage [1]: −14.4564% and −9.717% and −14.5956%
- Inhibition percentage [2]: 23.36% and 11.78% and 18.98%

Compound: O=S(=O)(NCCc1ccccc1)c1ccc(NC(=S)Nc2ccccc2)cc1 [Compound C2]
- pIC50: < 5.00
- Inhibition percentage [3]: 1.325% and 0.8006% and 5.407%

Compound: COc1ccc(C(=O)NC(=S)Nc2ccc(NC(=S)NC(C)=O)cc2)cc1Cl [Compound C3]
- pIC50: < 5.00
- Inhibition percentage [4]: 5.05% and 4.705% and 12.02%

Compound: O=S(=O)(Nc1ccc(Cl)cc1)c1ccc(NC(=S)Nc2ccccc2)cc1 [Compound C4]
- pIC50: < 5.00

Compound: O=C(NCCCCCCNC(=O)NCc1cccnc1)NCc1cccnc1 [Compound C5]
- pIC50: < 5.00

Compound: O=C(CCCCC(=O)NNC(=S)Nc1ccc(Br)cc1)NNC(=S)Nc1ccc(Br)cc1 [Compound C6]
- pIC50: < 5.00
- Inhibition percentage [5]: −28.7792% and −19.4453% and −24.9236%

Compound: O=C(NNC(=S)Nc1ccccc1)[C@H](O)[C@@H](O)C(=O)NNC(=S)Nc1ccccc1 [Compound C7]
- pIC50: < 5.00
- Inhibition percentage [5]: −25.3779% and −25.5195% and −24.1306%
- Inhibition percentage [3]: −8.847% and −15.2446% and −18.5536%

Compound: CCC(=O)NC(=S)Nc1ccc(NC(=S)NC(=O)c2ccccc2OC)cc1 [Compound C8]
- pIC50: < 5.00

Compound: CCC(=O)NC(=S)Nc1ccc(NC(=S)NC(=O)c2cccc(OC)c2)cc1 [Compound C9]
- pIC50: < 5.00
- Inhibition percentage [6]: 3.734% and −2.05% and −2.9843%
- Inhibition percentage [7]: 8.521% and 5.537% and 14.34%

Compound: CN1C(=O)Cc2cc(S(=O)(=O)CCC(=O)NCCc3ccccc3)ccc21 [Compound C10]
- pIC50: < 5.00
- Inhibition percentage [8]: 1.692% and 1.059% and 6.715%
- Inhibition percentage [4]: −33.073% and −31.3707% and −29.8413%

Compound: CC(=O)c1ccccc1NC(=O)c1c(O)c2c3c(sc2[nH]c1=O)C[C@H](C)CC3 [Compound C11]
- pIC50: < 5.00
- Inhibition percentage [9]: 21.46% and 27.01% and 27.99%
- Inhibition percentage [2]: 11.37% and 16.25% and 12.52%

Compound: COc1cc(/C=N/NC(=O)CN2C(=O)N[C@H]3NC(=O)N[C@@H]32)cc(OC)c1O [Compound C12]
- pIC50: < 5.00

Compound: COc1ccc(NC(=O)c2c(O)c3c4c(sc3[nH]c2=O)C[C@@H](C)CC4)cc1Cl [Compound C13, (7S)—N-(3-chloro-4-methoxyphenyl)-4-hydroxy-7-methyl-2-oxo-5,6,7,8-tetrahydro-1H-[1]benzothiolo[2,3-b]pyridine-3-carboxamide]
- pIC50: 6.35
- inhibitory activity of glucagon receptor (in words, from cAMP response curves): have the activity
- inhibitory activity of glucagon receptor (in words, from cAMP response curves) (listed as A1): good inhibitory activity of glucagon receptor
- Inhibition percentage [9]: 98.37% and 95.2799% and 96.15%
- Inhibition percentage (concentration gradient LogM −5, triplicate, HEK293, cAMP HTRF, listed as A1): 98.37 percentage and 95.2799 percentage and 96.15 percentage
- Inhibition percentage [1]: 87.84% and 83.28% and 83.51%
- Inhibition percentage (concentration gradient LogM −5.477121, triplicate, HEK293, cAMP HTRF, listed as A1): 87.84 percentage and 83.28 percentage and 83.51 percentage
- Inhibition percentage [8]: 75.44% and 83.24% and 79.3%
- Inhibition percentage (concentration gradient LogM −5.954243, triplicate, HEK293, cAMP HTRF, listed as A1): 75.44 percentage and 83.24 percentage and 79.3 percentage
- Inhibition percentage [5]: 7.62% and −2.135% and −0.781%

Compound: CSc1cccc(NC(=O)c2c(O)c3sccc3[nH]c2=O)c1 [Compound C14]
- pIC50: 6.37
- inhibitory activity of glucagon receptor (in words, from cAMP response curves): have the activity
- inhibitory activity of glucagon receptor (in words, from cAMP response curves) (listed as A2): good inhibitory activity of glucagon receptor
- Inhibition percentage [9]: 103.2945% and 102.1097% and 103.2736%
- Inhibition percentage (concentration gradient LogM −5, triplicate, HEK293, cAMP HTRF, listed as A2): 103.2945 percentage and 102.1097 percentage and 103.2736 percentage
- Inhibition percentage [1]: 106.1285% and 105.9119% and 107.3553%
- Inhibition percentage (concentration gradient LogM −5.477121, triplicate, HEK293, cAMP HTRF, listed as A2): 106.1285 percentage and 105.9119 percentage and 107.3553 percentage
- Inhibition percentage [8]: 84.32% and 92.48% and 91.05%
- Inhibition percentage (concentration gradient LogM −5.954243, triplicate, HEK293, cAMP HTRF, listed as A2): 84.32 percentage and 92.48 percentage and 91.05 percentage
- Inhibition percentage (concentration gradient LogM −6.431364, HEK293 cells, glucagon peptide segment, HTRF cAMP, triplicate columns): 40.16% and 62.74% and 47.65%
- Inhibition percentage (concentration gradient LogM −6.431364, triplicate, HEK293, cAMP HTRF, listed as A2): 40.16 percentage and 62.74 percentage and 47.65 percentage

Compound: COc1ccc2cc(C(=O)NCCNc3ccc(C)nn3)[nH]c2c1 [Compound C15]
- pIC50: < 5.00
- Inhibition percentage [9]: 2.451% and 0.02571% and 3.529%
- Inhibition percentage [4]: −19.189% and −13.1875% and −18.6652%
- Inhibition percentage [5]: 3.911% and 12.71% and 11.16%

Compound: O=C(CCNC(=O)c1ccccc1)NCc1cccc(NC(=O)C2CC2)c1 [Compound C16]
- pIC50: < 5.00
- Inhibition percentage [4]: −5.221% and −7.477% and −6.358%
- Inhibition percentage [7]: −7.7562% and −6.836% and −15.6271%

Compound: CSc1cccc(NC(=O)CCNS(=O)(=O)c2ccc(NC(C)=O)cc2)c1 [Compound C17]
- pIC50: < 5.00

Compound: O=C(COC(=O)CCNS(=O)(=O)c1ccc(Cl)cc1)NC(=O)NCc1ccco1 [Compound C18]
- pIC50: < 5.00
- Inhibition percentage [8]: −6.593% and −12.6979% and −7.936%

Compound: O=C(CNC(=O)NCCCOC1CCCCC1)Nc1ccc(F)c(F)c1 [Compound C19]
- pIC50: < 5.00

Compound: O=C(COC(=O)CCNC(=O)c1ccsc1)NC(=O)NCc1cccs1 [Compound C20]
- pIC50: < 5.00

Compound: O=C(CSc1nc2ccccc2[nH]1)NC(=O)Nc1ccc2c(c1)OCO2 [Compound C21]
- pIC50: < 5.00

Compound: O=C(CNC(=O)NCCCN1CCCCCC1=O)Nc1ccc(F)c(F)c1 [Compound C22]
- pIC50: < 5.00
- Inhibition percentage [6]: −5.735% and 1.578% and −3.875%

Compound: Cc1ccc(-c2csc(NC(=O)c3ccc4c(c3)NC(=O)CS4)n2)c(C)c1 [Compound C23]
- Inhibition percentage [9]: 75.66% and 75.14% and 57.58%

Compound: CNC(=O)Cc1ccccc1NC(=O)NCCC(=O)NC1CCCC1 [Compound C24]
- pIC50: < 5.00

Compound: CC(C)(C)NC(=O)NC(=O)CSc1nc(-c2cccs2)c(-c2cccs2)[nH]1 [Compound C25]
- pIC50: < 5.00

Compound: COc1cc(NC(=O)CNC(=O)CNC(=O)c2cccs2)c(OC)cc1Cl [Compound C26]
- pIC50: < 5.00

Compound: O=C(CCNC(=O)NC1CCCCC1)NNc1ccccc1C(F)(F)F [Compound C27]
- pIC50: < 5.00
- Inhibition percentage [2]: −24.7315% and −29.8299% and −20.459%

Compound: CS(=O)(=O)NCCOc1ccc(S(=O)(=O)NCCOc2ccccc2)cc1 [Compound C28]
- pIC50: < 5.00

Compound: Cn1c(CNC(=O)c2cccs2)nnc1SCC(=O)Nc1ccc(Cl)cc1 [Compound C29]
- pIC50: < 5.00

Compound: CNC(=O)NC(=O)CSc1nc2cc(-c3ccc(F)cc3)sc2c(=O)n1N [Compound C30]
- pIC50: < 5.00
